Experimental data as given in paper PMC5218480 (PLoS ONE, 2017).

Tested on: MV-4-11 cells
Experiment: Gene expression microarray analysis (Affymetrix PrimeView) and GSEA
Assay type: cell-based, human
Set-up: RFU PODN (11730768_x_at) / Fold change /veh PODN (11730768_x_at) / RFU LINC00158 (11744669_a_at) / Fold change /veh LINC00158 (11744669_a_at) / RFU DUSP10 (11751237_a_at) / Fold change /veh DUSP10 (11751237_a_at) / RFU ID3 (11757404_x_at) / Fold change /veh ID3 (11757404_x_at) / RFU PLEKHG5 (11737974_s_at) / Fold change /veh PLEKHG5 (11737974_s_at) / RFU LRRC4B (11730491_at) / Fold change /veh LRRC4B (11730491_at) / RFU GIMAP4 (11747438_a_at) / Fold change /veh GIMAP4 (11747438_a_at) / RFU KRT8 (11758183_x_at) / Fold change /veh KRT8 (11758183_x_at) / RFU CNN1 (11734310_a_at) / Fold change /veh CNN1 (11734310_a_at) / RFU VPS37D (11726825_at) / Fold change /veh VPS37D (11726825_at) / RFU C10orf10 (11716522_x_at) / Fold change /veh C10orf10 (11716522_x_at) / RFU KIR2DL2 /// KIR2DL4 /// KIR2DL5A /// KIR2DL5B /// KIR2DS1 /// KIR2DS2 /// KIR2DS3 /// KIR2DS4 /// KIR3DL3 /// KIR3DL3 /// KIR3DS1 (11738374_at) / Fold change /veh KIR2DL2 /// KIR2DL4 /// KIR2DL5A /// KIR2DL5B /// KIR2DS1 /// KIR2DS2 /// KIR2DS3 /// KIR2DS4 /// KIR3DL3 /// KIR3DL3 /// KIR3DS1 (11738374_at) / RFU C1QL1 (11718748_at) / Fold change /veh C1QL1 (11718748_at) / RFU TMPRSS4 (11747572_a_at) / Fold change /veh TMPRSS4 (11747572_a_at) / RFU HAMP (11756126_x_at) / Fold change /veh HAMP (11756126_x_at) / RFU RNFT2 (11725882_a_at) / Fold change /veh RNFT2 (11725882_a_at) / RFU NR4A2 (11747474_a_at) / Fold change /veh NR4A2 (11747474_a_at) / RFU ABCC12 (11746883_a_at) / Fold change /veh ABCC12 (11746883_a_at) / RFU TMEM136 (11760407_x_at) / Fold change /veh TMEM136 (11760407_x_at) / RFU CLDN22 /// WWC2 (11732394_at) / Fold change /veh CLDN22 /// WWC2 (11732394_at) / RFU HLA-DPB1 (11760878_x_at) / Fold change /veh HLA-DPB1 (11760878_x_at) / RFU SPINT1 (11716480_a_at) / Fold change /veh SPINT1 (11716480_a_at) / RFU GAP43 (11754022_s_at) / Fold change /veh GAP43 (11754022_s_at) / RFU A4GNT (11735810_at) / Fold change /veh A4GNT (11735810_at) / RFU PRB3 (11715151_x_at) / Fold change /veh PRB3 (11715151_x_at) / RFU TUBB4B (11761932_at) / Fold change /veh TUBB4B (11761932_at) / RFU CAPN14 (11732068_a_at) / Fold change /veh CAPN14 (11732068_a_at) / RFU TMCC2 (11721928_a_at) / Fold change /veh TMCC2 (11721928_a_at) / RFU IRGQ (11745062_a_at) / Fold change /veh IRGQ (11745062_a_at) / RFU FAM174B (11720279_a_at) / Fold change /veh FAM174B (11720279_a_at) / RFU TMPRSS4 (11748680_a_at) / Fold change /veh TMPRSS4 (11748680_a_at) / RFU FAM212B (11763350_a_at) / Fold change /veh FAM212B (11763350_a_at) / RFU PLEKHG5 (11743358_a_at) / Fold change /veh PLEKHG5 (11743358_a_at) / RFU ZSCAN30 (11745921_a_at) / Fold change /veh ZSCAN30 (11745921_a_at) / RFU CMKLR1 (11741424_a_at) / Fold change /veh CMKLR1 (11741424_a_at) / RFU LOC101060620 /// MAPK8IP1 (11723275_at) / Fold change /veh LOC101060620 /// MAPK8IP1 (11723275_at) / RFU SPTSSB (11747773_x_at) / Fold change /veh SPTSSB (11747773_x_at) / RFU PRSS12 (11739890_at) / Fold change /veh PRSS12 (11739890_at) / RFU BIN1 (11741810_x_at) / Fold change /veh BIN1 (11741810_x_at) / RFU WNT11 (11732464_a_at) / Fold change /veh WNT11 (11732464_a_at) / RFU C10orf10 (11716521_a_at) / Fold change /veh C10orf10 (11716521_a_at) / RFU C5orf56 (11738089_at) / Fold change /veh C5orf56 (11738089_at) / RFU CYB561 (11721691_x_at) / Fold change /veh CYB561 (11721691_x_at) / RFU ANKRD19P (11752326_a_at) / Fold change /veh ANKRD19P (11752326_a_at) / RFU OR2T12 /// OR2T33 /// OR2T8 (11738714_s_at) / Fold change /veh OR2T12 /// OR2T33 /// OR2T8 (11738714_s_at) / RFU VCAN (11748164_a_at) / Fold change /veh VCAN (11748164_a_at) / RFU JSRP1 (11732532_at) / Fold change /veh JSRP1 (11732532_at) / RFU KRTAP10-11 (11738290_x_at) / Fold change /veh KRTAP10-11 (11738290_x_at) / RFU MYO3A (11730013_a_at) / Fold change /veh MYO3A (11730013_a_at) / RFU EBF3 (11725865_a_at) / Fold change /veh EBF3 (11725865_a_at) / RFU CAMK2N1 (11719241_x_at) / Fold change /veh CAMK2N1 (11719241_x_at) / RFU C5orf56 (11738088_a_at) / Fold change /veh C5orf56 (11738088_a_at) / RFU OLFML3 (11715873_a_at) / Fold change /veh OLFML3 (11715873_a_at) / RFU LOC100653217 /// NTM (11731650_a_at) / Fold change /veh LOC100653217 /// NTM (11731650_a_at) / RFU MAPK11 (11762145_a_at) / Fold change /veh MAPK11 (11762145_a_at) / RFU FIZ1 (11724087_x_at) / Fold change /veh FIZ1 (11724087_x_at) / RFU OASL (11726364_x_at) / Fold change /veh OASL (11726364_x_at) / RFU SOX15 (11748057_x_at) / Fold change /veh SOX15 (11748057_x_at) / RFU CD79A (11719716_a_at) / Fold change /veh CD79A (11719716_a_at) / RFU HIST1H1D (11736915_at) / Fold change /veh HIST1H1D (11736915_at) / RFU CASKIN2 (11723855_a_at) / Fold change /veh CASKIN2 (11723855_a_at) / RFU LOC730098 (11760151_x_at) / Fold change /veh LOC730098 (11760151_x_at) / RFU OR4N2 (11742367_at) / Fold change /veh OR4N2 (11742367_at) / RFU PRRT2 (11749266_a_at) / Fold change /veh PRRT2 (11749266_a_at) / RFU SNX32 (11753110_a_at) / Fold change /veh SNX32 (11753110_a_at) / RFU CDHR5 (11726645_a_at) / Fold change /veh CDHR5 (11726645_a_at) / RFU RCAN1 (11760418_a_at) / Fold change /veh RCAN1 (11760418_a_at) / RFU FAM167A (11723789_a_at) / Fold change /veh FAM167A (11723789_a_at) / RFU FAM26E (11764081_at) / Fold change /veh FAM26E (11764081_at) / RFU ISYNA1 (11749810_s_at) / Fold change /veh ISYNA1 (11749810_s_at) / RFU ACY1 (11761880_at) / Fold change /veh ACY1 (11761880_at) / RFU 11764098_at / Fold change /veh 11764098_at / RFU SAMD14 (11745864_x_at) / Fold change /veh SAMD14 (11745864_x_at) / RFU NPB (11741838_a_at) / Fold change /veh NPB (11741838_a_at) / RFU TMPRSS6 (11731388_a_at) / Fold change /veh TMPRSS6 (11731388_a_at) / RFU KRTAP10-2 (11738614_at) / Fold change /veh KRTAP10-2 (11738614_at) / RFU ARHGAP8 /// PRR5-ARHGAP8 (11727945_x_at) / Fold change /veh ARHGAP8 /// PRR5-ARHGAP8 (11727945_x_at) / RFU KRTAP5-7 /// NADSYN1 (11734609_at) / Fold change /veh KRTAP5-7 /// NADSYN1 (11734609_at) / RFU RASL12 (11751679_a_at) / Fold change /veh RASL12 (11751679_a_at) / RFU CDKN2B (11736163_a_at) / Fold change /veh CDKN2B (11736163_a_at) / RFU PRF1 (11729649_at) / Fold change /veh PRF1 (11729649_at) / RFU, ZNF638 /// ZNF638-IT1 / Fold change vs veh, ZNF638 /// ZNF638-IT1 / RFU, PANK3 / Fold change vs veh, PANK3 / RFU, SH3YL1 / Fold change vs veh, SH3YL1 / RFU, ZEB2 / Fold change vs veh, ZEB2 / RFU, NRIP1 / Fold change vs veh, NRIP1 / RFU, PTTG1IP / Fold change vs veh, PTTG1IP / RFU, CAPN2 / Fold change vs veh, CAPN2 / RFU, MED14 / Fold change vs veh, MED14 / RFU, SNORA58 / Fold change vs veh, SNORA58 / RFU, C1orf63 / Fold change vs veh, C1orf63 / RFU, LRRFIP1 / Fold change vs veh, LRRFIP1 / RFU, NDUFAF7 / Fold change vs veh, NDUFAF7 / RFU, SLC12A2 / Fold change vs veh, SLC12A2 / RFU, IBTK / Fold change vs veh, IBTK / RFU, ESF1 / Fold change vs veh, ESF1 / Fold change vs veh, TMEM50B / RFU, TAOK1 / Fold change vs veh, TAOK1 / RFU, ACBD3 / Fold change vs veh, ACBD3 / RFU, TMA16 / Fold change vs veh, TMA16 / RFU, RWDD3 / Fold change vs veh, RWDD3 / RFU, BCAT1 / Fold change vs veh, BCAT1 / RFU, EDEM3 / Fold change vs veh, EDEM3 / RFU, TMEM33 / Fold change vs veh, TMEM33 / RFU, WDR75 / Fold change vs veh, WDR75 / RFU, AHCTF1 / Fold change vs veh, AHCTF1 / RFU, TFRC / Fold change vs veh, TFRC / RFU, ZDHHC17 / Fold change vs veh, ZDHHC17 / RFU, NOM1 / Fold change vs veh, NOM1 / RFU, ARL8B / Fold change vs veh, ARL8B / RFU, ZBTB11 / Fold change vs veh, ZBTB11 / RFU, TAMM41 / Fold change vs veh, TAMM41 / RFU, KIAA1704 /// LOC100996395 / Fold change vs veh, KIAA1704 /// LOC100996395 / RFU, ING1 / Fold change vs veh, ING1 / RFU, TRMT61B / Fold change vs veh, TRMT61B / RFU, FUBP3 / Fold change vs veh, FUBP3 / RFU, TP53 / Fold change vs veh, TP53 / RFU, TNKS2 / Fold change vs veh, TNKS2 / RFU, ZFP14 / Fold change vs veh, ZFP14 / RFU, ACTR2 / Fold change vs veh, ACTR2 / RFU, PPP3R1 / Fold change vs veh, PPP3R1 / RFU, PIK3R1 / Fold change vs veh, PIK3R1 / RFU, HNRNPA1 / Fold change vs veh, HNRNPA1 / RFU, RNF170 / Fold change vs veh, RNF170 / RFU, ZNF28 / Fold change vs veh, ZNF28 / RFU, RNGTT / Fold change vs veh, RNGTT / RFU, OGT / Fold change vs veh, OGT / RFU, BRD1 / Fold change vs veh, BRD1 / RFU, MARS / Fold change vs veh, MARS / RFU, ZNF655 / Fold change vs veh, ZNF655 / RFU, FAHD1 / Fold change vs veh, FAHD1 / RFU, BDP1 / Fold change vs veh, BDP1 / RFU, LRRCC1 / Fold change vs veh, LRRCC1 / RFU, ARID1A / Fold change vs veh, ARID1A / RFU, ZNF146 / Fold change vs veh, ZNF146 / RFU, ZNF330 / Fold change vs veh, ZNF330 / RFU, GPN3 / Fold change vs veh, GPN3 / RFU, C9orf123 / Fold change vs veh, C9orf123 / RFU, N4BP2L2 / Fold change vs veh, N4BP2L2 / RFU, ARFIP1 / Fold change vs veh, ARFIP1 / RFU, FAM179B / Fold change vs veh, FAM179B / RFU, BCL10 / Fold change vs veh, BCL10 / RFU, UHRF1BP1L / Fold change vs veh, UHRF1BP1L / RFU, BET1 / Fold change vs veh, BET1 / RFU, CNOT2 / Fold change vs veh, CNOT2 / RFU, ZNF268 / Fold change vs veh, ZNF268 / Fold change vs veh, ZNF507 / RFU, DGCR2 / Fold change vs veh, DGCR2 / RFU, WDSUB1 / Fold change vs veh, WDSUB1 / Fold change vs veh, HSP90B1 /// MIR3652 / RFU, ADSS / Fold change vs veh, ADSS / RFU, GK / Fold change vs veh, GK / RFU, ZNF148 / Fold change vs veh, ZNF148 / RFU, TAF9 / Fold change vs veh, TAF9 / RFU, SLC1A5 / Fold change vs veh, SLC1A5 / RFU, SLMO2 / Fold change vs veh, SLMO2 / RFU, ABCC4 / Fold change vs veh, ABCC4 / RFU, LOC101060439 /// RAP1B / Fold change vs veh, LOC101060439 /// RAP1B / RFU, RFX7 / Fold change vs veh, RFX7 / RFU, GTPBP10 / Fold change vs veh, GTPBP10 / RFU, CNEP1R1 / Fold change vs veh, CNEP1R1 / RFU, BIVM-ERCC5 /// ERCC5 / Fold change vs veh, BIVM-ERCC5 /// ERCC5 / RFU, ILF3 / Fold change vs veh, ILF3 / RFU 11762660_at / Fold change /veh 11762660_at / RFU VCAN (11757783_s_at) / Fold change /veh VCAN (11757783_s_at) / RFU DDX43 (11728927_at) / Fold change /veh DDX43 (11728927_at) / RFU KRT8 (11758188_x_at) / Fold change /veh KRT8 (11758188_x_at) / RFU NKD1 (11759106_at) / Fold change /veh NKD1 (11759106_at) / RFU SRD5A1 (11742802_a_at) / Fold change /veh SRD5A1 (11742802_a_at) / RFU TPSAB1 /// TPSB2 (11721975_s_at) / Fold change /veh TPSAB1 /// TPSB2 (11721975_s_at) / RFU GSTM3 (11746129_a_at) / Fold change /veh GSTM3 (11746129_a_at) / RFU IL23R (11737362_x_at) / Fold change /veh IL23R (11737362_x_at) / RFU TMEM51 (11727254_a_at) / Fold change /veh TMEM51 (11727254_a_at) / RFU PIWIL2 (11732686_x_at) / Fold change /veh PIWIL2 (11732686_x_at) / RFU ORM1 (11744905_x_at) / Fold change /veh ORM1 (11744905_x_at) / RFU CCDC152 (11743942_at) / Fold change /veh CCDC152 (11743942_at) / RFU ECM1 (11717891_a_at) / Fold change /veh ECM1 (11717891_a_at) / RFU IL23R (11748794_a_at) / Fold change /veh IL23R (11748794_a_at) / RFU TNFAIP8L3 (11732012_x_at) / Fold change /veh TNFAIP8L3 (11732012_x_at) / RFU MBOAT4 (11741988_at) / Fold change /veh MBOAT4 (11741988_at) / RFU 11764193_at / Fold change /veh 11764193_at / RFU TMEM53 (11763286_at) / Fold change /veh TMEM53 (11763286_at) / RFU MAGEB2 (11727129_at) / Fold change /veh MAGEB2 (11727129_at) / RFU TMEM200A (11744735_a_at) / Fold change /veh TMEM200A (11744735_a_at) / RFU CCDC152 (11751479_a_at) / Fold change /veh CCDC152 (11751479_a_at) / RFU FAM211A (11726209_a_at) / Fold change /veh FAM211A (11726209_a_at) / RFU RGS16 (11746705_a_at) / Fold change /veh RGS16 (11746705_a_at) / RFU VCAN (11755009_s_at) / Fold change /veh VCAN (11755009_s_at) / RFU RHOB (11743442_s_at) / Fold change /veh RHOB (11743442_s_at) / RFU RGS16 (11720943_a_at) / Fold change /veh RGS16 (11720943_a_at) / RFU RGS16 (11720944_at) / Fold change /veh RGS16 (11720944_at) / RFU, VPS4B / Fold change vs veh, VPS4B / RFU, CREB1 / Fold change vs veh, CREB1 / RFU, DNAJC13 / Fold change vs veh, DNAJC13 / RFU, GNAQ / Fold change vs veh, GNAQ / RFU, CDK5R1 / Fold change vs veh, CDK5R1 / RFU, ZRANB3 / Fold change vs veh, ZRANB3 / RFU, CUL4A / Fold change vs veh, CUL4A / RFU, CCNY / Fold change vs veh, CCNY / RFU, UFL1 / Fold change vs veh, UFL1 / RFU, COG3 / Fold change vs veh, COG3 / RFU, DIAPH2 / Fold change vs veh, DIAPH2 / RFU, SKA2 / Fold change vs veh, SKA2 / RFU, AFF3 / Fold change vs veh, AFF3 / RFU, LMF1 / Fold change vs veh, LMF1 / RFU, IPO11 / Fold change vs veh, IPO11 / RFU, DFFB / Fold change vs veh, DFFB / RFU, FOXP1 / Fold change vs veh, FOXP1 / RFU, CARD8 / Fold change vs veh, CARD8 / RFU, STRN3 / Fold change vs veh, STRN3 / RFU, ADK / Fold change vs veh, ADK / RFU, RASSF2 / Fold change vs veh, RASSF2 / RFU, WIPF1 / Fold change vs veh, WIPF1 / RFU, LARP1B / Fold change vs veh, LARP1B / RFU, RASA1 / Fold change vs veh, RASA1 / RFU, RB1 / Fold change vs veh, RB1 / RFU, PPFIA1 / Fold change vs veh, PPFIA1 / RFU, MAT2A / Fold change vs veh, MAT2A / RFU, CCT5 / Fold change vs veh, CCT5 / RFU, WDR92 / Fold change vs veh, WDR92 / RFU, CUX1 / Fold change vs veh, CUX1 / RFU, TTC7A / Fold change vs veh, TTC7A / RFU, TMEM135 / Fold change vs veh, TMEM135 / RFU, DEPTOR / Fold change vs veh, DEPTOR / RFU, CPM / Fold change vs veh, CPM / RFU, DNAJB6 / Fold change vs veh, DNAJB6 / RFU, CACNA2D3 / Fold change vs veh, CACNA2D3 / RFU, DTX4 / Fold change vs veh, DTX4 / RFU, TFCP2 / Fold change vs veh, TFCP2 / RFU, GMCL1 /// GMCL1P1 / Fold change vs veh, GMCL1 /// GMCL1P1 / RFU, AEBP2 / Fold change vs veh, AEBP2 / RFU, SNHG1 /// SNORD22 /// SNORD25 /// SNORD26 /// SNORD27 /// SNORD28 /// SNORD29 /// SNORD31 / Fold change vs veh, SNHG1 /// SNORD22 /// SNORD25 /// SNORD26 /// SNORD27 /// SNORD28 /// SNORD29 /// SNORD31 / Fold change (Aza/veh), C12orf56 (ProbeSet 11735607_a_at) / Fold change (ACY-1035/veh), C12orf56 (ProbeSet 11735607_a_at) / Fold change (Aza/veh), FGFR1OP (ProbeSet 11751329_s_at) / Fold change (ACY-1035/veh), FGFR1OP (ProbeSet 11751329_s_at) / Fold change (Aza/veh), VPS36 (ProbeSet 11739960_a_at) / Fold change (ACY-1035/veh), VPS36 (ProbeSet 11739960_a_at) / RFU SYPL1 (11715823_x_at) / Fold change /veh SYPL1 (11715823_x_at) / RFU IGFBP7 (11715501_s_at) / Fold change /veh IGFBP7 (11715501_s_at) / RFU REEP3 (11722064_at) / Fold change /veh REEP3 (11722064_at) / RFU IGLL1 (11728026_x_at) / Fold change /veh IGLL1 (11728026_x_at): dose or concentration left out as unconfirmed
Settings: MV-4-11 cells, 48 hours

## Nc1ccc(-c2cccs2)cc1NC(=O)c1ccc2c(c1)cc(C1CC1)n2CCN1CCOCC1 [ACY-1035]
  Fold change /veh KRTAP10-11 (11738290_x_at): 1.00
